O=C1OC(=O)c2ccc(Br)c3cccc1c23
solubility (mole fraction)
Conditions	278.15 K	283.15 K	288.15 K	293.15 K	298.15 K	303.15 K
in acetic acid	0.000263	0.000316	0.000382	0.00046	0.000565	0.000666
in acetone	0.001	0.00119	0.00138	0.00161	0.00192	0.00224
in ethanol	2.66e-05	3.65e-05	5.08e-05	6.99e-05	9.53e-05	0.000131
in methanol	4.62e-05	6.41e-05	8.62e-05	0.000118	0.00016	0.000212

From BigSolDB 2.1
